Common to all, as to type: in vivo, human
In one test the test system is complement factor C3a. The test is described as follows: Plasma complement factor C3a by ELISA in AAV patients of the CLEAR trial. Particulars: for C3a levels compared to baseline: full dose prednisone; for C3a, change in plasma level (Summary of Results): AAV patients, 12 week treatment period, all also received cyclophosphamide or rituximab. The procedure: (§1) The CLEAR trial (Jayne D R W, et al. JASN 2017; 28:2756) compared 3 regimens in 67 patients with AAV: (1) full dose prednisone (60 mg daily, tapered); (2) avacopan 30 mg twice daily plus low dose prednisone (20 mg, tapered); (3) avacopan 30 mg twice daily plus no prednisone. All also received either cyclophosphamide or rituximab. There was a 12-week treatment period with 12 week follow-up period
(§2) Plasma samples were collected from AAV patients who participated in CLEAR study at baseline and at 6 hour, Days 8, 29, and 85 during treatment. Plasma samples from 20 health controls matched for age, gender and ethnic background were collected at UNC Kidney Center.
(§3) EDTA whole blood was kept on ice immediately after collection and centrifuged at 4° C. for plasma preparation. Plasma samples were stored at −80° C. freezer until analysis for complement Bb, C5a, […] and properdin by ELISA in one thaw.
(§4) Paired t-test was used for within group comparison and unpaired t-test was used for between group comparisons using log transformed data. P-values were corrected for multiple comparisons.

Another test deals with properdin. The test is described as follows: Plasma properdin by ELISA in AAV patients of the CLEAR trial. The conditions noted are these: for Properdin, change in plasma level (Summary of Results): AAV patients, 12 week treatment period, all also received cyclophosphamide or rituximab; for circulating properdin levels, change from baseline: any treatment group, 6 h, days 8, 29, 85. On the procedure: as §1, §2, §3, §4

The subject of a further test is sC5b-9. The test is described as follows: Plasma sC5b-9 by ELISA in AAV patients of the CLEAR trial. The conditions noted are these: for sC5b-9, change in plasma level (Summary of Results): AAV patients, 12 week treatment period, all also received cyclophosphamide or rituximab; for circulating sC5b-9 levels, change from baseline: any treatment group, 6 h, days 8, 29, 85. On the procedure:
as §1, §2, §3, §4

The test system of another test is complement factor C5a. Kind of test: Plasma complement factor C5a by ELISA in AAV patients of the CLEAR trial. The conditions noted are these: for C5a, change in plasma level (Summary of Results): AAV patients, 12 week treatment period, all also received cyclophosphamide or rituximab. The procedure: as §1, §2, §3, §4
In the next test the test system is complement factor Bb. Kind of test: Plasma complement factor Bb by ELISA in AAV patients of the CLEAR trial. Particulars: for Bb, change in plasma level (Summary of Results): AAV patients, 12 week treatment period, all also received cyclophosphamide or rituximab. The procedure:
as §1, §2, §3, §4

The test system of a further test is patients with AAV. The test is described as follows: CLEAR trial clinical outcome in ANCA-associated vasculitis. The conditions noted are these: for clinical benefit / improvement in AAV: 12 week treatment period, avacopan 30 mg twice daily.
Excerpt: (A) plots the Birmingham Vasculitis Activity Score; (B) plots the urinary albumin to creatine ration; (C) plots the EuroQOL-5D-5L visual analgue scale; (D) plots the Short Form-36 physical functioning results; and (E) plots the Short Form-36 role emotional results. Patients receiving high dose prednisone are plotted with diamonds; patients receiving avacopan with low dose prednisone are plotted with squares; and patients receiving avacopan with no prednisone are plotted with triangles.
as §1

[1] abbreviates: day 85, when prednisone was tapered.
The mark [2] stands for this setting: CLEAR trial, AAV patients, avacopan with low dose or no prednisone.

“Also recorded” adds a separate entry of the source.

Take `C[C@]12C=CC(=O)C=C1CC[C@@H]1[C@@H]2C(=O)C[C@@]2(C)[C@H]1CC[C@]2(O)C(=O)CO` [Prednisone, prednisone]: the “C3a levels compared to baseline” value in the test on complement factor C3a (6 hours) is on record as “decreased”. For the same molecule, in the test on complement factor C3a, the “C3a, change in plasma level (Summary of Results)” value is given as “↓”. Also, in the test with complement factor C3a (setting [1]), the C3a levels result is reported as “rising again; also recorded: rose again”. For the same molecule, the “C3a levels compared to baseline” value with complement factor C3a (days 8 and 29) is on record as “decreased significantly; also recorded: further decreased”. For the same molecule, in the test with properdin, the “Properdin, change in plasma level (Summary of Results)” value is on record as “No changes” and the “circulating properdin levels, change from baseline” value is recorded as “No statistically significant changes”. Moreover, in the test with sC5b-9, the “sC5b-9, change in plasma level (Summary of Results)” value is on record as “No changes” and the “circulating sC5b-9 levels, change from baseline” value is “No statistically significant changes”. The “C5a, change in plasma level (Summary of Results)” value with complement factor C5a is given as “↓”. The “C5a levels compared to baseline” value in the test with complement factor C5a (day 8 and 29, high dose prednisone) is recorded as “decreased significantly; also recorded: decrease”. Further, the C5a levels entry with complement factor C5a (setting [1]) was “rising again; also recorded: rose again”. In addition, the “Bb, change in plasma level (Summary of Results)” value in the test with complement factor Bb is “↓”. In the test on complement factor Bb (setting [1]), the Bb levels result is recorded as “rising again; also recorded: rose again”. In the test on complement factor Bb (days 8 and 29, full dose prednisone 60 mg daily, tapered), the “Bb levels compared to pre-dose” value is listed as “decreased significantly”.
Consider `Cc1ccc(NC(=O)[C@H]2CCCN(C(=O)c3c(C)cccc3F)[C@H]2c2ccc(NC3CCCC3)cc2)cc1C(F)(F)F` [Avacopan, avacopan], for which the “C3a, change in plasma level (Summary of Results)” value with complement factor C3a is listed as “No changes”. The “C3a levels during treatment compared to baseline” value with complement factor C3a (avacopan 30 mg twice daily without prednisone, 6 h, days 8, 29, 85) was “did not impact; also recorded: No change”. In the test on properdin, the “Properdin, change in plasma level (Summary of Results)” value is “No changes” and the “circulating properdin levels, change from baseline” value is “No statistically significant changes”. Further, in the test with patients with AAV, the “clinical benefit / improvement in AAV” value was “achieved clinical benefit; also recorded: rapid improvement”. Besides, in the test on patients with AAV (listed as avacopan), the “clinical benefit / improvement in AAV” value is listed as “rapidly improves”. Further, in the test on patients with AAV (setting [2]), the “disease activity (Birmingham Vasculitis Activity Score, urinary albumin to creatinine ratio)” value is listed as “rapid decrease” and the “health-related quality of life (EuroQOL-5D-5L, Short Form-36)” value is on record as “significant improvement”. In addition, in the test on sC5b-9, the “sC5b-9, change in plasma level (Summary of Results)” value is listed as “No changes” and the “circulating sC5b-9 levels, change from baseline” value is on record as “did not change; also recorded: No statistically significant changes”. Further, the “C5a, change in plasma level (Summary of Results)” value with complement factor C5a was “No changes”. In the test with complement factor C5a (avacopan 30 mg twice daily with low or no prednisone, 6 h, days 8, 29, 85), the “C5a levels during treatment compared to baseline” value is recorded as “did not impact; also recorded: No change”. Further, the “Bb, change in plasma level (Summary of Results)” value with complement factor Bb is on record as “No changes”. Besides, the “Bb levels during treatment compared to pre-dose” value with complement factor Bb (avacopan 30 mg twice daily with low dose or no prednisone, 6 h, days 8, 29, 85) was “did not impact; also recorded: No change”.

Source of the values: US11191756B2, “Dosing and effect of C5a antagonist with ANCA-associated vasculitis” (CHEMOCENTRYX, INC., priority 2018, dated 2021).
